Laboratory results reported in paper PMC10377643, “Exploration of Bis-Cinnamido-Polyamines as Intrinsic Antimicrobial Agents and Antibiotic Enhancers” (Biomolecules, 2023).
Converted amounts (≈) assume the structure as drawn.

Experiments:
S. aureus ATCC 25923 = experiment: Antimicrobial MIC, S. aureus; type: cell-based; settings: Staphylococcus aureus, ATCC25923, mean (n = 3)
Description: (§1) The susceptibility of bacterial strains S. aureus (ATCC 25923), E. coli (ATCC 25922) and P. aeruginosa (ATCC 27853) to antibiotics and compounds was determined using protocols reported previously. Additional antimicrobial evaluation against MRSA (ATCC 43300), Klebsiella pneumoniae (ATCC 700603), Acinetobacter baumannii (ATCC 19606), Candida albicans (ATCC 90028) and Cryptococcus neoformans (ATCC 208821) was undertaken at the Community for Open Antimicrobial Drug Discovery at The University of Queensland (Australia) according to their standard protocols reported previously.

MRSA ATCC 43300 = experiment: Antimicrobial MIC, MRSA (CO-ADD); type: cell-based, methicillin-resistant S. aureus; settings: Staphylococcus aureus; MRSA ATCC 43300; mean (n = 2); read-out: MIC MRSA
Description: as §1

P. aeruginosa ATCC 27853 [1] = experiment: Antimicrobial MIC, P. aeruginosa; type: cell-based; settings: Pseudomonas aeruginosa, ATCC27853, mean (n = 3)
Description: as §1

E. coli ATCC 25922 [2] = experiment: Antimicrobial MIC, E. coli; type: cell-based, Escherichia coli; settings: mean (n = 3)
Description: as §1

C. albicans ATCC 90028 = experiment: Antifungal MIC, C. albicans (CO-ADD); type: cell-based; settings: Candida albicans, ATCC90028, mean (n = 2)
Description: as §1

[3] = test system: C. neoformans ATCC 208821; experiment: Antifungal MIC, C. neoformans (CO-ADD); type: cell-based; settings: Cryptococcus neoformans, ATCC208821, mean (n = 2)
Description: as §1

Cytotoxicity assay = type: cell-based, human; settings: human, HEK293 human embryonic kidney cells, mean (n = 2), read-out: Cytotoxicity (IC50), concentration of compound at 50% cytotoxicity
Description: Cytotoxicity assays were conducted using the protocols previously reported.

P. aeruginosa ATCC 27853 [4] = experiment: Doxycycline enhancement against P. aeruginosa; type: cell-based, Pseudomonas aeruginosa; settings: doxycycline fixed at 4.5 µM
Description: (§2) Antibiotic enhancer concentrations were determined using previously reported protocols.
We then evaluated the set of analogues for the ability to enhance the antibiotic activity of doxycycline against P. aeruginosa ATCC 27853 and of erythromycin against E. coli ATCC 25922 (Table 2). In the case of doxycycline, a fixed concentration of the antibiotic of 4.5 μM, which is twenty-fold lower than the intrinsic MIC 90 μM against this organism, was used. Each of the test compounds was then evaluated at a range of concentrations varying from 3.125 to 50–100 μM, with the upper concentration dependent upon the compounds intrinsic MIC towards P. aeruginosa (Table 1). […] While the observation of cytotoxicity/hemolytic properties of 16a–c, 14f and 13f reduces our interest in these analogues, analogues 13b and 13d were identified as non-toxic and strong enhancers of the action of doxycycline towards P. aeruginosa.

E. coli ATCC 25922 [5] = experiment: Erythromycin enhancement against E. coli; type: cell-based, Escherichia coli; settings: erythromycin fixed at 10.9 µM (8 µg/mL)
Description: as §2

human red blood cells = experiment: Hemolytic assay; type: cell-based; settings: mean (n = 2)
Description: Hemolysis assays were conducted using the protocols previously reported.

[6] = Escherichia coli, ATCC25922, E. coli ATCC 25922

| SMILES | MIC (S. aureus ATCC 25923) [µM] | MIC (MRSA ATCC 43300) [µM] | MIC (P. aeruginosa ATCC 27853 [1]) [µM] | MIC (E. coli ATCC 25922 [2]; [6]) [µM] | MIC (C. albicans ATCC 90028) [µM] | MIC [3] [µM] | IC50 (Cytotoxicity assay) [µM] | Dox/P. a: concentration required to restore doxycycline activity (P. aeruginosa ATCC 27853 [4]) [µM] | Dox/P. a: fold change (intrinsic MIC of test compound / combination MIC) (P. aeruginosa ATCC 27853 [4]) [fold] | Eryth/E. c: concentration required to restore erythromycin activity (E. coli ATCC 25922 [5]) [µM] | Eryth/E. c: fold change (intrinsic MIC of test compound / combination MIC) (E. coli ATCC 25922 [5]) [fold] | Hemolysis (HC10), concentration of compound at 10% hemolytic activity (human red blood cells) [µM] | MIC (E. coli ATCC 25922 [2]; E. coli ATCC 25922) [µM] |
| --- | --- | --- | --- | --- | --- | --- | --- | --- | --- | --- | --- | --- | --- |
| COc1ccc(/C=C/C(=O)NCCCNCCCCNCCCNC(=O)/C=C/c2ccc(OC)c(Br)c2)cc1Br.O=C(O)C(F)(F)F.O=C(O)C(F)(F)F [Compound 15a, N^1,N^4-Bis(3-((E)-3-(3-bromo-4-methoxyphenyl)acrylamido)propyl)butane-1,4-diaminium 2,2,2-trifluoroacetate] | 13.8 | 2.2 | > 220 | 55 | 17.6 | ≤ 0.28 | > 35.2 | 27.5 | > 8 | 13.7 | 4 | – | – |
| OC(Cn1cncn1)(Cn1cncn1)c1ccc(F)cc1F [fluconazole, reference compound] | – | – | – | – | 0.4 (≈ 0.123 µg/mL) | 26 (≈ 7.96 µg/mL) | – | – | – | – | – | – | – |
| COc1ccc(/C=C/C(=O)NCCCNCCCCCCCNCCCNC(=O)/C=C/c2ccc(OC)cc2)cc1.O=C(O)C(F)(F)F.O=C(O)C(F)(F)F [Compound 14c, N^1,N^7-Bis(3-((E)-3-(4-methoxyphenyl)acrylamido)propyl)heptane-1,7-diaminium 2,2,2-trifluoroacetate] | 31.5 | 20.2 | > 252 | 252 | > 40.4 | – | > 40.4 | 31.5 | > 8 | 126 | 2 | >40.4 | – |
| COc1ccc(/C=C/C(=O)NCCCNCCCCCCCCCCCCNCCCNC(=O)/C=C/c2ccc(OC)c(Br)c2)cc1Br.O=C(O)C(F)(F)F.O=C(O)C(F)(F)F [Compound 15f, N^1,N^12-Bis(3-((E)-3-(3-bromo-4-methoxyphenyl)acrylamido)propyl)dodecane-1,12-diaminium 2,2,2-trifluoroacetate] | 6.12 | ≤ 0.24 | > 196 | 6.12 | – | ≤ 0.24 | 1.12 | 49.0 | > 4 | 6.1 | 1 | 1.17 | – |
| COc1ccc(/C=C/C(=O)NCCCNCCCCCCCCCCNCCCNC(=O)/C=C/c2ccc(OC)c(Br)c2)cc1Br.O=C(O)C(F)(F)F.O=C(O)C(F)(F)F [Compound 15e, N^1,N^10-Bis(3-((E)-3-(3-bromo-4-methoxyphenyl)acrylamido)propyl)decane-1,10-diaminium 2,2,2-trifluoroacetate] | 1.57 | ≤ 0.25 | 50.4 | 25.2 | 32.2 | 1 | > 32.2 | 50.4 | 1 | – | – | 24.1 | – |
| CC/C(=C(\c1ccccc1)c1ccc(OCCN(C)C)cc1)c1ccccc1 [tamoxifen, reference compound] | – | – | – | – | – | – | 24 | – | – | – | – | – | – |
| COc1ccc(/C=C/C(=O)NCCCNCCCCNCCCNC(=O)/C=C/c2ccc(OC)cc2)cc1.O=C(O)C(F)(F)F.O=C(O)C(F)(F)F [Compound 14a, N^1,N^4-Bis(3-((E)-3-(4-methoxyphenyl)acrylamido)propyl)butane-1,4-diaminium 2,2,2-trifluoroacetate] | 33.3 | > 42.6 | > 266 | 266 | > 42.6 | – | > 42.6 | 16.6 | > 16 | 67 | 4 | >42.6 | – |
| COc1ccc(/C=C/C(=O)NCCCNCCCCCCCCCCNCCCNC(=O)/C=C/c2ccc(OC)cc2)cc1.O=C(O)C(F)(F)F.O=C(O)C(F)(F)F [Compound 14e, N^1,N^10-Bis(3-((E)-3-(4-methoxyphenyl)acrylamido)propyl)decane-1,10-diaminium 2,2,2-trifluoroacetate] | 1.87 | ≤ 0.3 | 240 | 120 | 38.3 | ≤ 0.3 | 2.3 | 60 | 4 | – | – | >38.3 | – |
| [H]/N=C(/N)N[C@H]1[C@H](O)[C@@H](O)[C@H](O[C@@H]2O[C@@H](C)[C@](O)(C=O)[C@H]2O[C@@H]2O[C@@H](CO)[C@H](O)[C@@H](O)[C@@H]2NC)[C@@H](N/C(N)=N\[H])[C@@H]1O [streptomycin, reference compound] | 21.5 (≈ 12.5 µg/mL) | – | 21.5 (≈ 12.5 µg/mL) | 21.5 (≈ 12.5 µg/mL) | – | – | – | – | – | – | – | – | – |
| O=C(C=Cc1ccccc1)NCCCNCCCCNCCCNC(=O)C=Cc1ccccc1.O=C(O)C(F)(F)F.O=C(O)C(F)(F)F [Compound 13a, N^1,N^4-Bis(3-cinnamamidopropyl)butane-1,4-diaminium 2,2,2-trifluoroacetate] | 724 | > 46.3 | 724 | 724 | > 46.3 | > 46.3 | – | 145 | 5 | 145 | 5 | – | – |
| COc1ccc(/C=C/C(=O)NCCCNCCCCCCCNCCCNC(=O)/C=C/c2ccc(OC)c(Br)c2)cc1Br.O=C(O)C(F)(F)F.O=C(O)C(F)(F)F [Compound 15c, N^1,N^7-Bis(3-((E)-3-(3-bromo-4-methoxyphenyl)acrylamido)propyl)heptane-1,7-diaminium 2,2,2-trifluoroacetate] | 6.57 | ≤ 0.26 | > 210 | 26 | 8.4 | ≤ 0.26 | > 33.7 | 26.3 | > 8 | 13.1 | 2 | – | – |
| COc1ccc(/C=C/C(=O)NCCCNCCCCCCCCCCCCNCCCNC(=O)/C=C/c2ccc(OC)cc2)cc1.O=C(O)C(F)(F)F.O=C(O)C(F)(F)F [Compound 14f, N^1,N^12-Bis(3-((E)-3-(4-methoxyphenyl)acrylamido)propyl)dodecane-1,12-diaminium 2,2,2-trifluoroacetate] | 3.62 | ≤ 0.29 | 232 | 7.2 | > 37.1 | – | 24.3 | 7.24 | 32 | 3.62 | 2 | – | 7.24 |
